Laboratory results as given in the supplement of paper PMC10307832.

Experiments:
Assay in all cases: relative viability (nuclei count vs DMSO), 5 days (fraction); higher = more cells survive
BX 795 + Palbociclib = compound: O=C(NCCCNc1nc(Nc2cccc(NC(=O)N3CCCC3)c2)ncc1I)c1cccs1 [BX 795] + CC(=O)c1c(C)c2cnc(Nc3ccc(N4CCNCC4)cn3)nc2n(C2CCCC2)c1=O [Palbociclib] (partner 0.5 µM)
Method in brief: (§1)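 Nuclei were stained with Hoechst during a one-step fixation (final 0.05% Triton X-100, 1% formaldehyde, 1 ug/ml Hoechst) carried out 5 days after dosing, then counted on 4× images. The cells, lung cancer lines in 1536-well plates, had been dosed by pin tool the day after seeding with one drug alone or a fixed anchor-drug dose plus five library-drug doses (not always all listed) in √10 steps. Relative viability is the nuclei count in treated wells divided by that in vehicle wells, and each value is the median of duplicate plates.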

BX 795 + Bortezomib = compound: O=C(NCCCNc1nc(Nc2cccc(NC(=O)N3CCCC3)c2)ncc1I)c1cccs1 [BX 795] + CC(C)C[C@H](NC(=O)[C@H](Cc1ccccc1)NC(=O)c1cnccn1)B(O)O [Bortezomib] (partner 0.002 µM)
Method in brief: as §1

BX 795 + Alpelisib = compound: O=C(NCCCNc1nc(Nc2cccc(NC(=O)N3CCCC3)c2)ncc1I)c1cccs1 [BX 795] + Cc1nc(NC(=O)N2CCC[C@H]2C(N)=O)sc1-c1ccnc(C(C)(C)C(F)(F)F)c1 [Alpelisib] (partner 2 µM)
Method in brief: as §1

BX 795 + Phenformin = compound: O=C(NCCCNc1nc(Nc2cccc(NC(=O)N3CCCC3)c2)ncc1I)c1cccs1 [BX 795] + N=C(N)NC(=N)NCCc1ccccc1 [Phenformin] (partner 250 µM)
Method in brief: as §1

BX 795 + Pemetrexed = compound: O=C(NCCCNc1nc(Nc2cccc(NC(=O)N3CCCC3)c2)ncc1I)c1cccs1 [BX 795] + Nc1nc2[nH]cc(CCc3ccc(C(=O)N[C@@H](CCC(=O)O)C(=O)O)cc3)c2c(=O)[nH]1 [Pemetrexed] (partner 0.2 µM)
Method in brief: as §1

Cell Line	relative viability (BX 795 + Palbociclib; first compound 0.04 µM)	relative viability (BX 795 + Palbociclib; first compound 0.1265 µM)	relative viability (BX 795 + Palbociclib; first compound 0.4 µM)	relative viability (BX 795 + Palbociclib; first compound 1.265 µM)	relative viability (BX 795 + Bortezomib; first compound 0.04 µM)	relative viability (BX 795 + Bortezomib; first compound 0.1265 µM)	relative viability (BX 795 + Bortezomib; first compound 0.4 µM)	relative viability (BX 795 + Bortezomib; first compound 1.265 µM)	relative viability (BX 795 + Alpelisib; first compound 0.04 µM)	relative viability (BX 795 + Alpelisib; first compound 0.1265 µM)	relative viability (BX 795 + Alpelisib; first compound 0.4 µM)	relative viability (BX 795 + Alpelisib; first compound 1.265 µM)	relative viability (BX 795 + Phenformin; first compound 0.04 µM)	relative viability (BX 795 + Phenformin; first compound 0.1265 µM)	relative viability (BX 795 + Phenformin; first compound 0.4 µM)	relative viability (BX 795 + Phenformin; first compound 1.265 µM)	relative viability (BX 795 + Pemetrexed; first compound 0.04 µM)	relative viability (BX 795 + Pemetrexed; first compound 0.1265 µM)	relative viability (BX 795 + Pemetrexed; first compound 0.4 µM)	relative viability (BX 795 + Pemetrexed; first compound 1.265 µM)
201T	0.333	0.34	0.376	0.405	1.12	1.08	1.18	1.11	1.01	1.02	1.1	1.03	0.47	0.421	0.464	0.421	0.302	0.305	0.298	0.304
A-427	0.562	0.482	0.508	0.502	0.972	0.964	1.02	0.866	1.1	1.1	1.1	1.03	0.284	0.236	0.277	0.177	1.02	0.925	1.08	0.849
ABC-1	0.768		0.765	0.727	0.392	0.299	0.332	0.291	1.17	1.25	0.911	0.764	0.263	0.265	0.262	0.195				
BEN	0.454	0.436	0.49	0.491	0.805	0.783	0.842	0.873	1.06	1.16	1.06	0.995	0.235	0.278	0.245	0.21	0.803	0.766	0.771	0.771
CAL-12T	0.473	0.55	0.298	0.218	0.954	0.929	1.04	0.623	1.12	1.5	1.29	0.285	0.599	0.591	0.447	0.212	1.1	1.28	0.809	0.494
COR-L23	0.359	0.287	0.253	0.191	1.1	1.02	0.916	0.979	0.882	0.838	0.98	0.356	0.391	0.411	0.431	0.234	0.204	0.188	0.176	0.171
COR-L 105	0.453	0.338	0.401	0.314	0.586	0.577	0.613	0.327	1.08	0.84	0.745	0.412	0.42	0.531	0.407	0.351	1.12	1.02	0.816	0.882
ChaGo-K-1	0.889	0.929	0.928	0.705	1.02	0.916	0.977	0.91					0.449	0.471	0.494	0.472	0.243	0.258	0.254	0.258
